Measurements from patent publication US20030199017A1, “Method for releasing a product comprising chemical oxidation, method for detecting said product and uses thereof” (Proteus, priority 2000, published 2003).

Columns and labels:
[1] = negative control without enzyme, pH series (para-nitrophenol released from the substrate); format: physicochemical; conditions: 40 minutes, no enzyme
Protocol: (§1) 74 μl of buffer at the desired pH (100 mmol) and 10 μl of a lipase solution at 0.01 mg/ml are added to 13.6 μmol of para-nitrophenylbutyrate. The reaction is incubated in a water bath for 40 minutes at 60° C. The samples are then removed from the water bath, and the pH of the solution is adjusted to 10 with a 0.2 M Na2CO3 solution. The para-nitrophenol that is released is then measured with a colorimeter at 414 nm.
(§2) The hydrolytic activity of the lipase based on the pH of the solution was also measured. […] The activities are expressed in %. The enzymatic reactions were incubated at 60° C. for 40 minutes at pH 3, 4, 5, 6.5, 7 and 8. A negative control without enzyme was also carried out by using the same experimental conditions.

[2] = target: T1, Candida antarctica lipase (Moesziomyces antarcticus, UniProt P41365); experiment: Candida antarctica lipase activity based on temperature (release of para-nitrophenol, colorimetry at 414 nm); format: biochemical; conditions: PIPES buffer 0.1 M pH 7, 40 minutes
Protocol: (§3) The hydrolytic activity of the Candida antarctica lipase was tested on 2 substrates: 2-hydroxy-4-p-nitrophenyl-butyl-decanoate and p-nitro-phenylbutyrate. The lipase activity is detected after hydrolysis of ester functions of substrates that produce the release (direct or indirect) of yellow-colored para-nitrophenol that is measured by colorimetry at 414 nm. The tests were carried out at different temperatures and pH.
(§4) The stock solutions of 2-hydroxy-4-p-nitrophenyl-butyl-decanoate and para-nitrophenolbutyrate (SIGMA) are prepared at the concentration of 20 mmol respectively in acetonitrile and isopropanol. The concentration of lipase B that is used is 0.01 mg/ml in a phosphate buffer (100 mmol, pH 7).
(§5) 74 μl of PIPES buffer (100 mmol, pH 7) and 10 μl of a lipase solution at 0.01 mg/ml are added to 13.6 μmol of 2-hydroxy-4-p-nitrophenyl-butyl-decanoate. The reaction is incubated in a water bath for 40 minutes at 50, 60, 70, 80 and 95° C. The samples are then removed from the water bath. Then, 40 μl of NaIO4 (100 mmol) and 4 μl of BSA (50 mg/ml) are added to the mixture. The pH of the solution is then adjusted to 10 by adding 40 μl of an Na2CO3 solution at 0.2 M. The para-nitrophenol that is released is then measured with a colorimeter at 414 nm.
(§6) 74 μl of PIPES buffer (100 mmol, pH 7) and 10 μl of a lipase solution at 0.01 mg/ml are added to 13.6 μmol of para-nitrophenylbutyrate. The reaction is incubated in a water bath for 40 minutes at 50, 60, 70, 80 and 95° C. The samples are then removed from the water bath, and the pH of the solution is adjusted to 10 with a 0.2 M Na2CO3 solution. The released para-nitrophenol is then measured with a calorimeter at 414 nm.
(§7) The activity of the lipase based on the incubation temperature was measured by using 2-hydroxy-4-p-nitrophenyl-butyl-decanoate and the para-nitrophenylbutyrate commercial substrate. […] The activities are expressed in %. The enzymatic reactions were carried out in the PIPES buffer (0.1 M, pH 7) at 50, 60, 70, 80 and 95° C. for 40 minutes. A negative control without enzyme was also carried out by using the same experimental conditions.

[3] = target: T1, Candida antarctica lipase; experiment: Candida antarctica lipase activity based on the pH of the solution (release of para-nitrophenol, 414 nm); format: biochemical; conditions: 40 minutes
Protocol: as §3, §4
The enzymatic activity of the Candida antarctica lipase was carried out at different pH levels by using buffers (100 mmol) listed in Table VII below.
74 μl of buffer at the desired pH (100 mmol) and 10 μl of a lipase solution at 0.01 mg/ml are added to 13.6 μmol of 2-hydroxy-4-p-nitrophenyl-butyl-decanoate. The reaction is incubated in a water bath for 40 minutes at 60° C. The samples are then removed from the water bath. Then, 40 μl of NaIO4 (100 mmol) and 4 μl of BSA (50 mg/ml) are added to the mixture. The pH of the solution is then adjusted to 10 by adding 40 μl of a solution of Na2CO3 at 0.2 M. The para-nitrophenol that is released is then measured with a calorimeter at 414 nm.
as §1, §2

[4] = negative control without enzyme, temperature series (para-nitrophenol released from the substrate); format: physicochemical; conditions: PIPES buffer 0.1 M pH 7, 40 minutes, no enzyme
Protocol: as §5
A negative control without enzyme was carried out under the same experimental conditions.
as §6, §7

[5] = stability of the substrates / oxidation by periodate in the presence of BSA; format: physicochemical; conditions: aqueous media
Excerpt: The oxidation of 1,2 diols and amino alcohols by periodate in an aqueous medium is a reaction that is well known to one skilled in the art. This reaction provides a purely chemical alternative for the conversion of alcohols into carbonyl groups in aqueous medium with a high chemoselectivity in the presence of other functional groups.
The substrates acetates 1, amide 5 and epoxide 6 are stable in the presence of periodate and BSA […] the aqueous media. […] Under optimized reaction conditions using 100 μm of substrate, 1 mmol of sodium periodate, 2 mg/ml of BSA in a borate buffer with a pH of 8.8, diol 2 is transformed into umbelliferone with a yield of 72% without observable secondary reactions. […] The oxidation of amino alcohol 6 takes place with a yield of 85% under the same conditions.

T1 sequence (P41365 26-342): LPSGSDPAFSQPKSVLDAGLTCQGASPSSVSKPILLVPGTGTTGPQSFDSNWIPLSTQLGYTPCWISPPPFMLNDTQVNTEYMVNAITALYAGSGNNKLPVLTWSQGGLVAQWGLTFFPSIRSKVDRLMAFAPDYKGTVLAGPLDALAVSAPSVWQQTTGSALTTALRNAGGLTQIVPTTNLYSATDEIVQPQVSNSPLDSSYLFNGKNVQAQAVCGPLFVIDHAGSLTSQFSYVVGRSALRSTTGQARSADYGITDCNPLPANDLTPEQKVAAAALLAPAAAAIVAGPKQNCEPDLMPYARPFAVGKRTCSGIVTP

In the case of `CCCCCCCCCC(=O)OCC(O)CCc1ccc([N+](=O)[O-])cc1` (stereo not drawn) [2-hydroxy-4-p-nitrophenyl-butyl-decanoate], the “activity signal Without enzyme” value ([1]; pH 3, 60° C.) is reported as 3.9%, the “activity signal Without enzyme” value ([1]; pH 4, 60° C.) is reported as 2.7% and the “activity signal Without enzyme” value ([1]; pH 5, 60° C.) is reported as 2.6%. For the same molecule, the “activity signal Without enzyme” value ([1]; pH 6.5, 60° C.) was 2.9%, the “activity signal Without enzyme” value ([1]; pH 7, 60° C.) was 3.4% and the “activity signal Without enzyme” value ([1]; pH 8, 60° C.) was 2.8%. The “activity of the Candida antarctica lipase (Lipase B)” value (from here on “activity … (Lipase B)”) ([2]; 50° C.) was 100%, the “activity … (Lipase B)” value ([2]; 60° C.) was 75.9% and the “activity … (Lipase B)” value ([2]; 70° C.) was 61.5%. The “activity … (Lipase B)” value ([2]; 80° C.) was 44.2%, the “activity … (Lipase B)” value ([2]; 95° C.) was 26.1% and the “activity … (Lipase B)” value ([3]; pH 3, 60° C.) was 58.9%. The “activity … (Lipase B)” value ([3]; pH 4, 60° C.) was 80.9%, the “activity … (Lipase B)” value ([3]; pH 5, 60° C.) was 96.1% and the “activity … (Lipase B)” value ([3]; pH 6.5, 60° C.) was 100%. For the same molecule, the “activity … (Lipase B)” value ([3]; pH 7, 60° C.) was 72%, the “activity … (Lipase B)” value ([3]; pH 8, 60° C.) was 40% and the “activity signal Without enzyme” value ([4]; 50° C.) was 8.7%. For the same molecule, the “activity signal Without enzyme” value ([4]; 60° C.) was 9.4%, the “activity signal Without enzyme” value ([4]; 70° C.) was 9.5% and the “activity signal Without enzyme” value ([4]; 80° C.) was 8.1%. The “activity signal Without enzyme” value ([4]; 95° C.) was 8.6%.

In the case of `O=C(Cc1ccccc1)NCC(O)CCOc1ccc2ccc(=O)oc2c1` (stereo not drawn) [amide 5, 1-Phenylacetamido-4-(7-coumarinyloxy)-2-butanol], the “stability in the presence of periodate and BSA” value (“stability in the presence” below) [5] is reported as “stable”.

In the case of `NCC(O)CCOc1ccc2ccc(=O)oc2c1` (stereo not drawn) [amino alcohol 6, 1-Amino-4-(7-coumarinyloxy)-2-butanol], the “stability in the presence” value [5] is reported as “release umbelliferone”.

With `O=c1ccc2ccc(OCC[C@H](O)CO)cc2o1` [diol 2, (S)-4-(7-coumarinyloxy)-1,2-butanediol] the “stability in the presence” value [5] was “release umbelliferone”.

With `O=c1ccc2ccc(OCC[C@H]3CO3)cc2o1` [epoxide 6, (S)-4-(7-coumarinyloxy)-1,2-epoxybutane] the “stability in the presence” value [5] was “stable”.

For `CCCC(=O)Oc1ccc([N+](=O)[O-])cc1` [p-Nitrophenylbutyrate, p-nitro-phenylbutyrate, reference compound], the “activity signal Without enzyme” value ([1]; pH 3, 60° C.) was 54.9%, the “activity signal Without enzyme” value ([1]; pH 4, 60° C.) was 63.6% and the “activity signal Without enzyme” value ([1]; pH 5, 60° C.) was 65.6%. The “activity signal Without enzyme” value ([1]; pH 6.5, 60° C.) was 69.2%, the “activity signal Without enzyme” value ([1]; pH 7, 60° C.) was 51.4% and the “activity signal Without enzyme” value ([1]; pH 8, 60° C.) was 103.9%. The “activity … (Lipase B)” value ([2]; 50° C.) was 100%, the “activity … (Lipase B)” value ([2]; 60° C.) was 75.4% and the “activity … (Lipase B)” value ([2]; 70° C.) was 60.4%. For the same molecule, the “activity … (Lipase B)” value ([2]; 80° C.) was 55.9%, the “activity … (Lipase B)” value ([2]; 95° C.) was 66.7% and the “activity … (Lipase B)” value ([3]; pH 3, 60° C.) was 94.2%. For the same molecule, the “activity … (Lipase B)” value ([3]; pH 4, 60° C.) was 73%, the “activity … (Lipase B)” value ([3]; pH 5, 60° C.) was 100% and the “activity … (Lipase B)” value ([3]; pH 6.5, 60° C.) was 79.5%. The “activity … (Lipase B)” value ([3]; pH 7, 60° C.) was 60.8%, the “activity … (Lipase B)” value ([3]; pH 8, 60° C.) was 103.9% and the “activity signal Without enzyme” value ([4]; 50° C.) was 83.6%. The “activity signal Without enzyme” value ([4]; 60° C.) was 67.3%, the “activity signal Without enzyme” value ([4]; 70° C.) was 59.5% and the “activity signal Without enzyme” value ([4]; 80° C.) was 59.8%. For the same molecule, the “activity signal Without enzyme” value ([4]; 95° C.) was 71.5%.
